Assay results published in patent USRE47193E1, “Selectively substituted quinoline compounds” (EISAI R&D MANAGEMENT CO., LTD., priority 2013, dated 2019).
Where “and” joins values, the source holds several entries; their conditions need not be identical. Identical values can stand only once. Like-named read-outs stand apart in the source and are kept apart here.

How the values were obtained:
Mouse Splenocytes = assay: Mouse spleen cell-based assay (R848, IL-6 ELISA); conditions: Mus musculus, Splenocyte, BALB/c spleen cells, 370 nM R848
Procedure: Mouse Spleen cell-based assay. Spleens were harvested from female BALB/c mice (Jackson Labs, Bar Harbor, Me.) euthanized by CO2. A single cell suspension was obtained by passing spleens through a 40 μm an nylon cell strainer. Cells were washed twice with 50 ml PBS (Mediatech, Inc., Manassas, Va.) and red blood cells were lysed in 5 ml RBC Lysis buffer (eBioscience, Inc., San Diego, Calif.) for 5 minutes at room temperature. Cells were washed twice more in PBS and finally resuspended in supplemented RPMI-1640 at 2.5×10^6 cells/ml. Cells were plated at 100 μl/well (2.5×10^5 cells/well) in 96-well tissue culture treated plates (Falcon). Serial dilutions of compounds solubilized in 100% DMSO were added in triplicate to cells to yield a final concentration of 0.1% DMSO. Cells were incubated with compound for 30 minutes at 37° C., 5% CO2 before adding 100 μl/well of 740 nM R848 (Resiquimod; GLSynthesis, Worcester, Mass.) in complete media for a final concentration of 370 nM R848. Cells were incubated for 20 hours at 37° C., 5% CO2. Culture supernatants were collected, and levels of IL-6 were assessed by standard ELISA procedure according to the manufacturer's recommended protocol (BD Biosciences, Inc., San Diego, Calif.).

human TLR8 = biological target: T1, human TLR8 (Homo sapiens, UniProt Q9NR97); assay: HEK-293 human TLR8 NF-kappaB luciferase reporter assay (CL097); type: cell-based
T1 construct: host or cells: HEK-293, then stably transfected with pNiFty2(NF-kappaB)-luciferase reporter
T1 sequence (Q9NR97 27-1041): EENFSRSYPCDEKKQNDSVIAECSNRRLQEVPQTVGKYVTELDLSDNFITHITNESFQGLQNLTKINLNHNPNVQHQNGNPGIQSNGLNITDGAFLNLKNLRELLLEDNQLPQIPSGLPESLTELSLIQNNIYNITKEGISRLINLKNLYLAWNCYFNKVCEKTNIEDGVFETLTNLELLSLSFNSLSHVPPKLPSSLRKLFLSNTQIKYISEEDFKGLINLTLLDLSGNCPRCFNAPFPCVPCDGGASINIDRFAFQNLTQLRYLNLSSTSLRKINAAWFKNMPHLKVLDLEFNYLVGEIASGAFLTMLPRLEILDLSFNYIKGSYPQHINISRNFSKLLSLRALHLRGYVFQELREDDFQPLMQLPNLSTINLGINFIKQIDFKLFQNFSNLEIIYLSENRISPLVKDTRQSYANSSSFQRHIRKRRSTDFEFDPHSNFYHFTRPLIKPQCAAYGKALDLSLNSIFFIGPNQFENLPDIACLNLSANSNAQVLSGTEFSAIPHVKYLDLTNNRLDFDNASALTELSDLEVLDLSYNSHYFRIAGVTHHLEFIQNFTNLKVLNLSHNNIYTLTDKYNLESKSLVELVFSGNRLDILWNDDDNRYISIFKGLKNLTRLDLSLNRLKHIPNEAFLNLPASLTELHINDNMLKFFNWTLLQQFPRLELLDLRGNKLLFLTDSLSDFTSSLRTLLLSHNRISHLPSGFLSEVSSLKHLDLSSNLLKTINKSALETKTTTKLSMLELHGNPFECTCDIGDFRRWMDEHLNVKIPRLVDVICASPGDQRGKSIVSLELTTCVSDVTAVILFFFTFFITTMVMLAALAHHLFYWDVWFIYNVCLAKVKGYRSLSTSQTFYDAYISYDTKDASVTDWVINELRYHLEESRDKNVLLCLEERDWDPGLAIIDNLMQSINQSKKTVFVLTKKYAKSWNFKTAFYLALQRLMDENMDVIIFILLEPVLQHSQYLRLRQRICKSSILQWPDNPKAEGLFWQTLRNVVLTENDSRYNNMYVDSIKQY
Procedure: Effects on mouse TLR7 were also compared. Cells were stimulated overnight with TLR7/8 agonist CL097 at pre-determined ED70-80: 3 ug/ml for HEK-hTLR7, 1.5 ug/ml for HEK-mTLR7 and 12 ug/ml for HEK-hTLR8, before reading luminescence intensity. Three tests were performed and IC50 value was determined using Graphpad Prism 6 nonlinear regression curve fit.
HEK-293 cells (ATCC) were engineered to stably express a NF-kappaB transcription factor inducible E-selectin (ELAM-1) luciferase reporter derived from the plasmid pGL3 (Promega) containing base pairs −2241 bp to −254 bp from the promoter of the human E-selectin gene (Accession No. NM_000450). These cells were then subsequently engineered to stably and individually express human TLR4, TLR7 or TLR9 full-length ORF cDNAs. Human TLR4 cDNA (Accession No. NM_138554) was cloned into pcDNA 3.0 expression vector (Invitrogen). TLR4 transfected cells were also engineered to express human MD-2 co-receptor [MD-2 cDNA (Accession No. NM_015364) was cloned into the pEF-BOS vector] and were supplemented with 10 nM soluble CD14 (R&D Systems) in the media to optimize LPS responsiveness. Human TLR9 cDNA (Accession No. NM_017442) was cloned into the pBluescript II KS vector (Agilent). Human TLR7 cDNA (Accession No. NM_016562) was obtained from OriGene. HEK-293 cells stably expressing human TLR8 (Accession No. NM_138636) or mouse TLR7 (Accession No. NM_133211) were purchased from InvivoGen and were then stably transfected with pNiFty2(NF-kappaB)-luciferase reporter plasmid (InvivoGen). Each cell type was plated in Dulbecco's modified Eagle's medium (DMEM) containing 10% fetal bovine serum (FBS) at a density of 2.22×10^5 cells/ml into a 384-well plate and incubated for 2 days at 37° C., 5% CO2. Varying concentrations of antagonist compounds were then added. Cells were then incubated for another 30 minutes before adding the appropriate TLR agonist as follows (final concentrations indicated): lipopolysaccharide (LPS; Sigma) at 10 ng/ml for TLR4, CL097 (InvivoGen) at 3 ug/ml for human TLR7 and TLR8 and mouse TLR7, and CvG-2006-2A [sequence: […] (SEQ ID NO: 1) with phosphorothioate backbone, synthesized by Sigma-Aldrich] at 0.6 uM for TLR9.

[1] = HEK-293 assay format, read-out: HEK/hTLR8 IC50

| SMILES | IC50 (Mouse Splenocytes) [nM] | IC50 (human TLR8; [1]) | other results |
| --- | --- | --- | --- |
| C[C@@H]1CN(c2ccc(C#N)c3ncccc23)C[C@H](C)O1 [ER-878952] | 1610 | 6 nM and 19.5 nM | – |
| C[C@@H]1CN(c2ccc(C#N)c3ncccc23)C[C@H](CO)O1 [ER-885493, 5-((2R,6R)-2-(hydroxymethyl)-6-methylmorpholino)quinoline-8-carbonitrile] | 517 | 101 nM | – |
| CC1CN(c2ccc(C#N)c3ncccc23)CC(CN2CCCC2CO)O1 (centres unmarked) [ER-886814] | – | 60 nM | – |
| C[C@@H]1CN(c2ccc(C#N)c3ncccc23)C[C@H](CN2CC[C@H](O)C2)O1 [ER-886820] | – | 78 nM | – |
| C[C@@H]1CN(c2ccc(C#N)c3ncccc23)C[C@H](CN2CCC(O)CC2)O1 [ER-886953] | – | 66 nM | – |
| C[C@@H]1CN(c2ccc(C#N)c3ncccc23)C[C@H](CNC2CCCC2)O1 [ER-887145] | – | 105 nM | – |
| C[C@@H]1CN(c2ccc(C#N)c3ncccc23)C[C@H](CN2CCNCC2)O1 [ER-887253] | 49 | 2 nM | – |
| C[C@@H]1CN(C[C@H]2CN(c3ccc(C#N)c4ncccc34)C[C@@H](C)O2)CCN1 [ER-887269] | – | 3.2 nM | – |
| CC1CNC(=O)CN1C[C@H]1CN(c2ccc(C#N)c3ncccc23)C[C@@H](C)O1 (some centres unmarked) [ER-887722] | 463 | 21 nM | – |
| C[C@@H]1CN(c2ccc(C#N)c3ncccc23)C[C@H](CN2CCN(C)CC2)O1 [ER-887723] | 47 | 9 nM | – |
| CCCN1CCN(C[C@H]2CN(c3ccc(C#N)c4ncccc34)C[C@@H](C)O2)CC1 [ER-887724] | 70 | 6 nM | – |
| CC1CN(c2ccc(C#N)c3ncccc23)CC(CN2CCC(N(C)C)CC2)O1 (centres unmarked) [ER-887725] | – | 1 nM | – |
| C[C@@H]1CN(c2ccc(C#N)c3ncccc23)C[C@H](CN2CCC(N3CCCCC3)CC2)O1 [ER-887927, 5-((2S,6R)-2-([1,4′-bipiperidin]-1′-ylmethyl)-6-methylmorpholino)quinoline-8-carbonitrile] | 26 | 0.5 nM | – |
| CC(=O)NC1CCN(CC2CN(c3ccc(C#N)c4ncccc34)CC(C)O2)CC1 (centres unmarked) [ER-888288] | 135 | – | – |
| CC1CN(c2ccc(C#N)c3ncccc23)CC(CN2CCN(C)CC2C)O1 (centres unmarked) [ER-889556] | 432 | – | – |
| CC1CN(c2ccc(C#N)c3ncccc23)CC(CN2CCC(NC(=O)C(C)C)CC2)O1 (centres unmarked) [ER-889745] | 90 | – | – |
| CC[C@H]1CN(C[C@H]2CN(c3ccc(C#N)c4ncccc34)C[C@@H](C)O2)CCN1 [ER-890963] | 250 | 2.8 nM | – |
| C[C@@H]1CN(c2ccc(C#N)c3ncccc23)C[C@H](C(=O)N[C@H]2CNC[C@H]2F)O1.Cl [ER-899742, (2R,6R)-4-(8-cyanoquinolin-5-yl)-N-[(3S,4R)-4-fluoropyrrolidin-3-yl]-6-methylmorpholine-2-carboxamide hydrochloride] | – | – | IC50 (human TLR8; IC50, HEK-hTLR8, CL097 12 ug/ml, individual tests 1-3): 2 nM and 2.5 nM and 2.6 nM; IC50 (human TLR8; IC50 average, HEK-hTLR8, CL097 12 ug/ml, average of three tests): 2.4 nM |
| CCN(CCO)CCCC(C)Nc1ccnc2cc(Cl)ccc12 (centres unmarked) [HCQ, hydroxychloroquine, reference compound] | – | – | IC50 (human TLR8; HEK-hTLR8, CL097 12 ug/ml, average of three tests, read-out: IC50 average): > 10000 nM; IC50 (human TLR8; HEK-hTLR8, CL097 12 ug/ml, individual tests 1-3, read-out: IC50): > 10000 nM |
